From patent publication US11236122B2, “Triterpene amine derivatives” (DFH THERAPEUTICS, priority 2018, dated 2022)
Where a name gives a salt, the structure may show the parent alone.

Columns and labels:
HIV-1 clade C pindieC1 = test: CA-SP1 accumulation assay (immunoblot), clade C pindieC1; type: cell-based; details: head prints K3016
Experimental: Compound evaluation was performed against a panel of HIV-1 Clade C isolates K3016, pindieC1, and ZM247. The three isolates all contain the SP1-A7V. Clade B NL4-3 was included as the […] control.
(§1) Plasmids, tissue culture and transfections. HIV-1 clade B molecular clone NL4-3 and cade C clones K3016, ZM247 were obtained from Dr. Christina Ochsenbauer, University of Alabama, USA. Both K3016 and ZM247 were constructed using viral strains from South Africa. The HIV-1 clade C molecular clone pindieC1 was obtained from Dr. Uday Ranga, JNCASR, India. This clone was constructed using an HIV strain from India. HEK-293T and TZM-bl cells were propagated in Dulbecco's modified Eagle's medium (DM4EM) containing 10% fetal bovine serum (FBS). HUT-R5 cells were propagated in RPM 1640 medium supplemented with 10% FBS. For transfections, HEK-293T cells were grown in six well plates to about 80% confluency. Cells were transfected using Lipofectamine 2000 (invitrogen, USA) following manufacturer's recommendations. For viral replication assays, HUT-R5 T-cells were transfected using DEAE dextran as described in Waheed, A. A., Ono, A., and Freed, E. O.; Methods for the study of HIV-1 assembly; Methods Mol. Biol. Clifton N.J. 485, 163-184 (2009).
(§2) Preparation of viral stocks. Virus stocks were prepared by transfecting HEK-293T cells with HIV-1 DNAs (3 μg). 24 h post-transfection, the culture medium was replaced with fresh DMEM and incubated for another 2 h. Compounds tested were maintained in the culture throughout transfection. The culture supernatant was centrifuged at 845×g for 3 min to remove cellular debris. The clarified supernatants were filtered (pore size 0.45 µm filter disc) to remove residual cellular contaminants. For determination of viral infectivity, the un-concentrated virus was used to infect TZM-bl cells. For the CA-SP1 accumulation assay, the virus was pelleted by ultra-centrifugation at 210,100×g for 1 h at 4° C. using SW41Ti rotor (Beckman Coulter, USA).
CA-SP1 accumulation assay. To measure accumulation of CA-SP1, immunoblot analysis of virus-associated proteins was performed. The virus pellet was resuspended in radioimmunoprecipitation assay (RIPA) buffer (50 mM Tris-HCl pH 8.0, 150 mM sodium chloride, 1.0% NP-40, 0.5% sodium deoxycholate, 0.1% SDS) containing 1×protease inhibitor cocktail (Roche, Germany). The viral lysates were subjected to SDS-polyacrylamide gel electrophoresis (15% gel). Proteins were transferred to polyvinylidene difluoride membranes and reacted with HIV-IgG obtained from the NIH AIDS Reagent Program (catalog no. 3957) followed by incubation with HRP-conjugated anti-human secondary antibodies (GE Healthcare, UK). The proteins were visualized by enhanced chemiluminescence (Pierce, USA) and the bands were quantified using ImageJ software (http://imagej.nih.gov/ij/).

[1] = Cytotoxicity assay CellTitre-Blue, HUT-R5; type: cell-based; details: human, HUT-R5 cells, read-out: Cytotoxicity CC50 HUTR5
Experimental: Cytotoxicity assays. Cytotoxicity assays were performed using the CellTitre-Blue Cell Viability Assay kit (Promega, USA) as per manufacturer's recommendations. HEK-293T and HUT-R5 cell lines were maintained in the presence of serial dilutions of the compounds for 4 days and treated with CellTitre-Blue reagent for 4 h at 37° C. The fluorescent signals were recorded at 530/25excision and 590/35emission using BioTek microplate reader. The 50% cytotoxicity concentrations (CC50s) were determined as the compound concentrations that reduced the fluorescent signals to 50% relative to DMSO only controls.

pNL4-3 SP1-V7A = test: CA-SP1 accumulation assay, SP1-V7A derivative; type: cell-based, HIV-1; details: HeLa or 293T cells; for % CA-SP1 Accumulation 10 nM SP1 V7A: 10 nM compound
Summary of the method: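 HeLa or 293T cells transfected with proviral clone, maturation inhibitors present through transfection and labeling; at 24 h, [^35S]Met/Cys labeling 2-3 h. Virions pelleted by ultracentrifugation, lysed, CA and CA-SP1 resolved by SDS-PAGE and quantified by phosphorimaging.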

HIV-1 clade B NL4-3 = test: Viral infectivity assay in TZM-bl cells (luciferase), NL4-3; type: cell-based; details: DMSO = 100
From the text: as §1, §2
(§3) Viral infectivity assays. The virus stocks were normalized for p24 antigen using an HIV-1 p24 Antigen Capture kit (ABL, USA). Equal amounts of virus were used to infect TZM-bl cells (5×10^4/well) in the presence of 20 μg DEAE-dextran per mL in 24 well plate. Single-round infectivity assays were performed as previously described in Checkley, M. A. et al; Reevaluation of the Requirement for TIP47 in Human Immunodeficiency Virus Type 1 Envelope Glycoprotein Incorporation; J. Virol. 87, 3561-3570 (2013). The luciferase activity in the cell lysates was measured using the Steady-Glo luciferase assay kit (Promega, USA) following manufacturer's recommendations.

HIV-1 clade C K3016 = test: Viral infectivity assay in TZM-bl cells (luciferase), K3016; type: cell-based; details: DMSO = 100
From the text: as §1, §2, §3

Row | Compound | % CA-SP1 Accumulation K3016 10 nM (HIV-1 clade C pindieC1) | % CA-SP1 Accumulation K3016 100 nM (HIV-1 clade C pindieC1) | CC50 at 4 days [1] | % CA-SP1 Accumulation 10 nM SP1 V7A (pNL4-3 SP1-V7A) | % Relative Infectivity NL4-3 10 nM (HIV-1 clade B NL4-3) | % Relative Infectivity NL4-3 100 nM (HIV-1 clade B NL4-3) | % Relative Infectivity K3016 10 nM (HIV-1 clade C K3016) | % Relative Infectivity K3016 100 nM (HIV-1 clade C K3016) | % CA-SP1 Accumulation 100 nM SP1 V7A (pNL4-3 SP1-V7A; 100 nM compound)
1 | C=C(C)[C@@H]1CC[C@]2(CCNCCN3CCS(=O)(=O)CC3)CC[C@]3(C)[C@H](CC[C@@H]4[C@@]5(C)CC[C@H](OC(=O)CC(C)(C)C(=O)O)C(C)(C)[C@@H]5CC[C@]43C)[C@@H]12 [Compound 51ee, (3β)-17-[[[2-[2-(1,1-Dioxothiomorpholin-4-yl)]Ethyl]Amino]Ethyl]-28-norlup-20(29)-en-3-ol, 3-(1-Hydrogen 2,2-Dimethylbutanedioate)] | 41.8% | 48.3% | > 500 nM | 35.1% | 15.4% | 4.4% | 32.0% | 7.8% | 
2 | C=C(C)[C@@H]1CC[C@]2(CCNC3CCN(CCO)CC3)CC[C@]3(C)[C@H](CC[C@@H]4[C@@]5(C)CC[C@H](OC(=O)CC(C)(C)CC(=O)O)C(C)(C)[C@@H]5CC[C@]43C)[C@@H]12 [Compound 51f, (3β)-17-[2-[[1-(2-Hydroxyethyl)piperidin-4-yl]amino]ethyl]-28-norlup-20(29)-en-3-ol, 3-(Hydrogen 3,3-Dimethylpentanedioate), Bis(trifluoroacetate) Salt] |  |  |  |  |  |  |  |  | 43.4 (3) %
3 | C=C(C)[C@@H]1CC[C@]2(CCNCCN3CCN(S(C)(=O)=O)CC3)CC[C@]3(C)[C@H](CC[C@@H]4[C@@]5(C)CC[C@H](OC(=O)CC(C)(C)C(=O)O)C(C)(C)[C@@H]5CC[C@]43C)[C@@H]12 [Compound 51ff, (3β)-17-[2-[[2-[4-(Methylsulfonyl)piperazin-1-yl]ethyl]amino]ethyl]-28-norlup-20(29)-en-3-ol, 3-(1-Hydrogen 2,2-Dimethylbutanedioate)] | 36.7% | 39.1% | > 500 nM | 31.1 (3) % | 20.1% | 2.9% | 43.3% | 24.4% | 
4 | C=C(C)[C@@H]1CC[C@]2(CCNCCN3CCN(Cc4ccccc4)CC3)CC[C@]3(C)[C@H](CC[C@@H]4[C@@]5(C)CC[C@H](OC(=O)CC(C)(C)C(=O)O)C(C)(C)[C@@H]5CC[C@]43C)[C@@H]12 [Compound 51hh, (3β)-17-[2-[[2-[4-(Phenylmethyl)piperazin-1-yl]ethyl]amino]ethyl]-28-norlup-20(29)-en-3-ol, 3-(1-Hydrogen 2,2-Dimethylbutanedioate)] | 26.7% | 43.8% | > 500 nM | 42.1 (5) % | 41.4% | 3.3% | 48.6% | 32.3% | 
